Test results: patent US20100298141A1, “SUBSTITUTED PYRIDINE N-OXIDE HERBICIDES” (E. I. DU PONT DE NEMOURS AND COMPANY, priority 2007, published 2010)

How the values were obtained:
bermudagrass = experiment: Test F preemergence test; format: in vivo, Cynodon dactylon; details: scale 0 to 100
Description: (§1) Seeds of plant species selected from bermudagrass (Cynodon dactylon), Surinam grass (Brachiaria decumbens), large crabgrass (Digitaria sanguinalis), green foxtail (Setaria viridis), goosegrass (Eleusine indica), johnsongrass (Sorghum halepense), kochia (Kochia scoparia), pitted morningglory (Ipomoea lacunosa), purple nutsedge (Cyperus rotundus), common ragweed (Ambrosia elation), mustard (Brassica nigra), guineagrass (Panicum maximum), […] (Paspalum dilatatum), barnyardgrass (Echinochloa crus-galli), southern sandbur (Cenchrus echinatus), common sowthistle (Sonchus oleraceous), prickly […] spinosa), Italian ryegrass (Lolium multiflorum), common purslane (Portulaca oleracea), broadleaf signalgrass (Brachiaria platyphylla), common groundsel (Senecio vulgaris), common chickweed (Stellaria media), Virginia dayflower (Commelina virginica), annual bluegrass (Poa annua), naked crabgrass (Digitaria nuda), […] cochinchinensis), quackgrass (Elytrigia repens), Canada horseweed (Conyza canadensis), field bindweed (Convolvulus arvensis), […] (Bidens bipinnata), common mallow (Malva sylvestris), Russian thistle (Salsola kali), and sugarcane (Saccharum officinarum) were planted and treated preemergence with test chemicals formulated in a non-phytotoxic solvent mixture which included a surfactant. At a different time, sugarcane was treated with postemergence applications of some of the test chemicals formulated in the same manner. Plants were approximately 3- to 4-leaf stage for the postemergence treatments. Treated plants and controls were maintained in a greenhouse for 14 to 21 days, after which time all species were compared to controls and visually evaluated. […] A dash (-) response means no test result.

purple nutsedge = experiment: Test F preemergence test; format: in vivo, Cyperus rotundus; details: scale 0 to 100
Description: as §1

itchgrass = experiment: Test F preemergence test; format: in vivo, Rottboellia cochinchinensis; details: scale 0 to 100
Description: as §1

broadleaf signalgrass = experiment: Test F preemergence test; format: in vivo, Brachiaria platyphylla; details: scale 0 to 100
Description: as §1

kochia = experiment: Test C pre-/postemergence test; format: in vivo, Kochia scoparia; details: for Plant response rating, Kochia: scale 0 to 100, 0 no effect, 100 complete control
In short: (§2)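 Compounds in a non-phytotoxic solvent with surfactant applied preemergence to seeded pots and, at the same time, postemergence to plants 2–18 cm tall (1- to 4-leaf stage). Paddy tests: pots flooded to 3 cm, compound applied into the water, depth held throughout.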

crabgrass = experiment: Test A pre-/postemergence greenhouse test; format: in vivo, Digitaria sanguinalis; details: for Crabgrass, Large plant response rating: 0 to 100 scale
In short: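 Pots of loam–sand soil sown with the test species are sprayed preemergence on the soil surface; emerged seedlings (1–2 leaves, 2–10 cm) are sprayed postemergence at the same time. The vehicle is a non-phytotoxic solvent mixture with surfactant. Injury is scored visually after ~10 d in greenhouse.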

pitted morningglory = experiment: Test F preemergence test; format: in vivo, Ipomoea lacunosa; details: scale 0 to 100
Description: as §1

yellow nutsedge = experiment: Test C pre-/postemergence test; format: in vivo, Cyperus esculentus; details: for Plant response rating, Nutsedge, Yellow: scale 0 to 100, 0 no effect, 100 complete control
In short: as §2

goosegrass = experiment: Test F preemergence test; format: in vivo, Eleusine indica; details: scale 0 to 100
Description: as §1

naked crabgrass = experiment: Test F preemergence test; format: in vivo, Digitaria nuda; details: scale 0 to 100
Description: as §1

prickly sida = experiment: Test F preemergence test; format: in vivo, Sida spinosa; details: scale 0 to 100
Description: as §1

green foxtail = experiment: Test F preemergence test; format: in vivo, Setaria viridis; details: scale 0 to 100
Description: as §1

common ragweed = experiment: Test C pre-/postemergence test; format: in vivo, Ambrosia elation; details: for Plant response rating, Ragweed: scale 0 to 100, 0 no effect, 100 complete control
In short: as §2

[1] = 31 g ai/ha, Preemergence, scale 0 to 100
[2] = 62 g ai/ha, preemergence, scale 0 (no effect) to 100 (complete control)
[3] = preemergence, 125 g ai/ha, scale 0 (no effect) to 100 (complete control)

Cc1cc[n+]([O-])c([S+]([O-])Cc2c(C(F)(F)F)nn(C)c2OC(F)F)c1 (stereo not shown) [Compound 1]
Plant response rating, Bermudagrass (bermudagrass; 8 g ai/ha, preemergence): 0 | Bermudagrass plant response rating (bermudagrass; 62 g ai/ha, Preemergence): 80 | Plant response rating, Bermudagrass (bermudagrass; Preemergence, 16 g ai/ha): 40 | Plant response rating, Bermudagrass (bermudagrass; Preemergence, 31 g ai/ha): 40 | Plant response rating, Purple Nutsedge (purple nutsedge; 8 g ai/ha, preemergence): 0 | Purple Nutsedge plant response rating (purple nutsedge; 62 g ai/ha, Preemergence): 60 | Plant response rating, Purple Nutsedge (purple nutsedge; Preemergence, 16 g ai/ha): 0 | Plant response rating, Purple Nutsedge (purple nutsedge; Preemergence, 31 g ai/ha): 60 | Plant response rating, Itchgrass (itchgrass; 8 g ai/ha, preemergence): 0 | Itchgrass plant response rating (itchgrass; 62 g ai/ha, Preemergence): 90 | Plant response rating, Itchgrass (itchgrass; Preemergence, 16 g ai/ha): 60 | Plant response rating, Itchgrass (itchgrass; Preemergence, 31 g ai/ha): 70 | Plant response rating, Signalgrass (broadleaf signalgrass; 8 g ai/ha, preemergence): 0 | Plant response rating, Signalgrass (broadleaf signalgrass; 16 g ai/ha, preemergence): 0 | Signalgrass plant response rating (broadleaf signalgrass; 62 g ai/ha, Preemergence): 50 | Plant response rating, Signalgrass (broadleaf signalgrass; Preemergence, 31 g ai/ha): 25 | Kochia plant response rating (kochia; [1]): 100 | Kochia plant response rating (kochia; [2]): 100 | Plant response rating (0 to 100), Kochia (kochia; Postemergence, 31 g ai/ha): 0 | Plant response rating, Kochia (kochia; Postemergence, 62 g ai/ha): 0 | Plant response rating, Kochia (kochia; Postemergence, 125 g ai/ha): 10 | Plant response rating, Kochia (kochia; Postemergence, 250 g ai/ha): 40 | Plant response rating (0 to 100), Kochia (kochia; Preemergence, 250 g ai/ha): 100 | Kochia plant response rating (kochia; [3]): 100 | Crabgrass, Large plant response rating (crabgrass; Postemergence, 125 g ai/ha, 0 is no effect, 100 is complete control): 60 | Crabgrass, Large plant response rating (crabgrass; Postemergence, 500 g ai/ha, 0 is no effect, 100 is complete control): 90 | Crabgrass, Large plant response rating (crabgrass; Preemergence, 125 g ai/ha, 0 no effect, 100 complete control): 100 | Plant response rating, Crabgrass, Large (crabgrass; Preemergence, 500 g ai/ha, 0 to 100 scale where 0 is no effect and 100 is complete control): 100 | Plant response rating, Morningglory (pitted morningglory; 8 g ai/ha, preemergence): 0 | Morningglory plant response rating (pitted morningglory; 62 g ai/ha, Preemergence): 95 | Plant response rating, Morningglory (pitted morningglory; Preemergence, 16 g ai/ha): 10 | Plant response rating, Morningglory (pitted morningglory; Preemergence, 31 g ai/ha): 75 | Nutsedge, Yellow plant response rating (yellow nutsedge; [1]): 0 | Nutsedge, Yellow plant response rating (yellow nutsedge; [2]): 95 | Plant response rating (0 to 100), Nutsedge, Yellow (yellow nutsedge; Postemergence, 31 g ai/ha): 0 | Plant response rating, Nutsedge, Yellow (yellow nutsedge; Postemergence, 62 g ai/ha): 0 | Plant response rating, Nutsedge, Yellow (yellow nutsedge; Postemergence, 125 g ai/ha): 0 | Plant response rating, Nutsedge, Yellow (yellow nutsedge; Postemergence, 250 g ai/ha): 0 | Plant response rating (0 to 100), Nutsedge, Yellow (yellow nutsedge; Preemergence, 250 g ai/ha): 100 | Nutsedge, Yellow plant response rating (yellow nutsedge; [3]): 100 | Plant response rating, Goosegrass (goosegrass; 8 g ai/ha, preemergence): 25 | Goosegrass plant response rating (goosegrass; 62 g ai/ha, Preemergence): 95 | Plant response rating, Goosegrass (goosegrass; Preemergence, 16 g ai/ha): 70 | Plant response rating, Goosegrass (goosegrass; Preemergence, 31 g ai/ha): 80 | Plant response rating, Crabgrass, Naked (naked crabgrass; 8 g ai/ha, preemergence): 0 | Crabgrass, Naked plant response rating (naked crabgrass; 62 g ai/ha, Preemergence): 100 | Plant response rating, Crabgrass, Naked (naked crabgrass; Preemergence, 16 g ai/ha): 15 | Plant response rating, Crabgrass, Naked (naked crabgrass; Preemergence, 31 g ai/ha): 90 | Plant response rating, Prickly Sida (prickly sida; 8 g ai/ha, preemergence): 0 | Prickly Sida plant response rating (prickly sida; 62 g ai/ha, Preemergence): 80 | Plant response rating, Prickly Sida (prickly sida; Preemergence, 16 g ai/ha): 20 | Plant response rating, Prickly Sida (prickly sida; Preemergence, 31 g ai/ha): 60 | Plant response rating, Foxtail, Green (green foxtail; 8 g ai/ha, preemergence): 0 | Foxtail, Green plant response rating (green foxtail; 62 g ai/ha, Preemergence): 100 | Plant response rating, Foxtail, Green (green foxtail; Preemergence, 16 g ai/ha): 60 | Plant response rating, Foxtail, Green (green foxtail; Preemergence, 31 g ai/ha): 80 | Ragweed plant response rating (common ragweed; [1]): 0 | Ragweed plant response rating (common ragweed; [2]): 10 | Plant response rating (0 to 100), Ragweed (common ragweed; Postemergence, 31 g ai/ha): 0 | Plant response rating (0 to 100), Ragweed (common ragweed; Postemergence, 62 g ai/ha): 0 | Plant response rating, Ragweed (common ragweed; Postemergence, 125 g ai/ha): 10 | Plant response rating, Ragweed (common ragweed; Postemergence, 250 g ai/ha): 20 | Plant response rating (0 to 100), Ragweed (common ragweed; Preemergence, 250 g ai/ha): 85 | Ragweed plant response rating (common ragweed; [3]): 85
